Measurements from patent US7384959B2, “Treatment of convulsive states” (priority 1999, dated 2008).

What was measured:
[1] = cited from earlier work
[2] = test system: rat; assay: Irwin Observation Test in the rat, subcutaneous route; format: in vivo; set-up: key to Mydriasis / Hyperthermia / Excitation: +=slight; ++=moderate
Source text: The following Tables report the results of the Irwin, PTZ and barbital interaction (sleep induction) tests. Description of these tests may be found in Psychopharmacologica, 13:222-257 (1968), Krall et al, Epilepsia 19:409-428 (1978), and Simon et al, J. Pharmacol, Paris 13:241-252 (1982). See also Roux et al, Phoenix international Pharmacology Reports Nos. D30.2061/2 and D99.021/2.
In Table 1, the following apply: +=slight; ++=moderate
(X/N) indicates the number of rats showing the symptoms.
Observations were performed at 15, 30, 60, 120, 180 minutes and 24 hours after administration.
Hyperthermia and mydriasis were evaluated by comparison of the mean scores obtained in treated and control animals.

In the case of `COC(=O)[C@@H](c1ccccc1)[C@@H]1CCCCN1` [l-MPH, l-threo-Methylphenidate], the “systemic availability following oral dosing” value [1] is listed as “very little l-MPH enters the circulation or becomes available to the brain”, the “Irwin test observation (cell wraps: No change)” value ([2]; 2 mg/kg s.c., rat) is listed as “No” and the Mydriasis ([2]; 4 mg/kg s.c., at 30′) is listed as “Mydriasis +”. The Excitation ([2]; 8 mg/kg s.c., at 30′) was “Excitation +”, the “Excitation, number of rats showing the symptoms (X/N)” value (“Excitation, number” below) ([2]; 8 mg/kg s.c., at 30′) was “(2/3) at 30′” and the Mydriasis ([2]; 8 mg/kg s.c., at 30′) was “Mydriasis +”. For the same molecule, the “Stereotypies (sniffing), number of rats showing the symptoms (X/N)” value (“Stereotypies (sniffing), number” below) ([2]; 8 mg/kg s.c., at 30′) was “(1/3) at 30′”, the “Stereotypies (sniffing), number” value ([2]; 16 mg/kg s.c., 30′ → 120′) was “(3/3) 30′ → 120′” and the Excitation ([2]; 16 mg/kg s.c., 60′ → 120′) was “Excitation +”. The “Excitation, number” value ([2]; 16 mg/kg s.c., 60′ → 120′) was “(2/3) 60′ → 120′”, the “Stereotypies (head movements), number of rats showing the symptoms (X/N)” value ([2]; 16 mg/kg s.c., 60′ → 120′) was “(1/3) 60′ → 120′” and the Mydriasis ([2]; 16 mg/kg s.c., at 30′) was “Mydriasis + at 30′”. The Excitation ([2]; 32 mg/kg s.c., 15′ → 30′) was “Excitation +”, the “Excitation, number” value ([2]; 32 mg/kg s.c., 15′ → 30′) was “(3/3) 15′ → 30′” and the “↑ Reactivity to touch, number of rats showing the symptoms (X/N)” value ([2]; 32 mg/kg s.c., 15′ → 30′) was “(3/3) 15′ → 30′”. For the same molecule, the Mydriasis ([2]; 32 mg/kg s.c., 15′ → 120′) was “(++ 15′ →”, the “Stereotypies (sniffing), number” value ([2]; 32 mg/kg s.c., 15′ → 120′) was “(3/3)” and the “↑ Fear, number of rats showing the symptoms (X/N)” value ([2]; 32 mg/kg s.c., 15′ → 120′) was “(3/3)”. The Hyperthermia ([2]; 32 mg/kg s.c., at 30′ and 120′) was “Hyperthermia +”, the Mydriasis ([2]; 32 mg/kg s.c., at 180′) was “(+ at 180′)” and the “Irwin test observations at higher doses” value ([2]; 64, 128 and 256 mg/kg, s.c., rat) was “all rats exhibited further characteristics including sedation, fore-paw treading, stereotypes (head movements) and decreased muscle tone”. The “signs of stimulation in the Irwin profile” value ([2]; at doses having anti-convulsant effects) was “Slight signs of stimulation were noted” and the “sedation in the Irwin profile” value ([2]; at the doses used in the PTZ test) was “sedation was not noted”.
